For seven compounds, ED50, Activity and IC50 results are on record in ChEMBL document CHEMBL1152264, “Diazen-1-ium-1,2-diolated nitric oxide donor ester prodrugs of 5-(4-hydroxymethylphenyl)-1-(4-aminosulfonylphenyl)-3-trifluoromethyl-1H-pyrazole and its methanesulfonyl analog: synthesis, biological evaluation and nitric oxide release studies” (Bioorg Med Chem, 2008).

One data set concerns Rattus norvegicus. As to the kind of experiment: Antiinflammatory activity against po dosed carrageenan-induced rat foot paw edema after 3 hrs. It is filed as functional. (In general: Carrageenan injected into the paw causes an acute inflammation.)
Data set [1] in a line: Effect on nitric oxide release in phosphate buffer at pH 7.4 after 1.5 hrs. It is filed as physicochemical. Particulars: pH 7.4, 1.5 h.
Data set [2] in a line: Effect on nitric oxide release in phosphate buffer at pH 7.4 after 1.5 hrs in presence of rat serum. It is filed as ADME. Particulars: pH 7.4, 1.5 h.
Data set [3] addresses T1, Prostaglandin G/H synthase 1 (Ovis aries, UniProt P05979).
T1 sequence (P05979 whole entry): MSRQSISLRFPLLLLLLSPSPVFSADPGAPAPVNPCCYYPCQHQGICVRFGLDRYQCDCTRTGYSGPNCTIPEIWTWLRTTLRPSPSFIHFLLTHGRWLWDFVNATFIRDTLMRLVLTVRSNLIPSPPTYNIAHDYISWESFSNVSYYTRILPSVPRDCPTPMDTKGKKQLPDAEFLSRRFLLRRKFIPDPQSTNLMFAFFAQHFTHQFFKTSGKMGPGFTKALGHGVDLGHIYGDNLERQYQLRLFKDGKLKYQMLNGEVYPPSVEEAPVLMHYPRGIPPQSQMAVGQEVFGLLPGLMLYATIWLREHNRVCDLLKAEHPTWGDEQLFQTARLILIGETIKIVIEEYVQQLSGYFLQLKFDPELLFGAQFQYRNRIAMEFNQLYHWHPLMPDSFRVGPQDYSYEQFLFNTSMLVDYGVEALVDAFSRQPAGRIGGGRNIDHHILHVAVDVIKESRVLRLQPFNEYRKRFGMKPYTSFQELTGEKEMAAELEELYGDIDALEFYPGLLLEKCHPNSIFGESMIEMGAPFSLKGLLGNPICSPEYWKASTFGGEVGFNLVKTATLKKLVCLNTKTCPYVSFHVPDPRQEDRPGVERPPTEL
Description: Inhibition of ovine COX1 by enzyme immuno assay

Take `CC(=O)OCO/N=[N+](\[O-])N1CCC[C@H]1C(=O)OCc1ccc(-c2cc(C(F)(F)F)nn2-c2ccc(S(C)(=O)=O)cc2)cc1`: in the data set with Rattus norvegicus, it took a dose of 76.7 µmol/kg to reach the 50% effect level (ED50). The Activity in data set [1] was 6.1%; in data set [2] it was 77%. Consider `CC(=O)OCO/N=[N+](\[O-])N1CCC[C@H]1C(=O)OCc1ccc(-c2cc(C(F)(F)F)nn2-c2ccc(S(N)(=O)=O)cc2)cc1`, for which the ED50 (in general, the midpoint of the dose-response relation) in the data set on Rattus norvegicus stood at 94.3 µmol/kg. Moreover, the results for the Activity in data set [1] and in data set [2] were 8.2% and 76%, respectively. Moreover, the IC50 (commonly the concentration that gives 50% inhibition) in data set [3] is above 100 µM. As to `NS(=O)(=O)c1ccc(-n2nc(C(F)(F)F)cc2-c2ccc(CO)cc2)cc1` [PRIMARY ALCOHOL METABOLITE OF CELECOXIB], the 50% effect level in the data set with Rattus norvegicus (ED50) was put at a dose of 77.1 µmol/kg. On to `CC(=O)Oc1ccccc1C(=O)O` [ASPIRIN], for which, in the data set with Rattus norvegicus, the ED50 is 710 µmol/kg. Same read-out and setting: then `Cc1ccc(-c2cc(C(F)(F)F)nn2-c2ccc(S(N)(=O)=O)cc2)cc1` [CELECOXIB], with 30.9 µmol/kg. For `CS(=O)(=O)c1ccc(-n2nc(C(F)(F)F)cc2-c2ccc(CO)cc2)cc1`, the ED50 in the data set on Rattus norvegicus came to 112 µmol/kg. Also, inhibition in data set [3] was half-maximal at 8.6 µM (IC50). `CC(C)Cc1ccc(C(C)C(=O)O)cc1` (stereo not drawn) [IBUPROFEN] showed an ED50 in the data set with Rattus norvegicus of 327 µmol/kg.
